In patent US20120165384A1, “INHIBITION OF HISTONE ACETYLTRANSFERASES BY CTK7A AND METHODS THEREOF” (JAWAHARLAL NEHRU CENTRE FOR ADVANCED SCIENTIFIC RESEARCH, priority 2009, published 2012):

Legend:
G9a = biological target: T1, G9a (Homo sapiens, UniProt Q96KQ7); test: Histone methyltransferase (HMTase) assay, G9a; format: biochemical; details: even at 100 μM
T1 construct: hexahistidine; made in house; host or cells: baculovirus-infected Sf21 cells
T1 sequence (Q96KQ7 1-1210): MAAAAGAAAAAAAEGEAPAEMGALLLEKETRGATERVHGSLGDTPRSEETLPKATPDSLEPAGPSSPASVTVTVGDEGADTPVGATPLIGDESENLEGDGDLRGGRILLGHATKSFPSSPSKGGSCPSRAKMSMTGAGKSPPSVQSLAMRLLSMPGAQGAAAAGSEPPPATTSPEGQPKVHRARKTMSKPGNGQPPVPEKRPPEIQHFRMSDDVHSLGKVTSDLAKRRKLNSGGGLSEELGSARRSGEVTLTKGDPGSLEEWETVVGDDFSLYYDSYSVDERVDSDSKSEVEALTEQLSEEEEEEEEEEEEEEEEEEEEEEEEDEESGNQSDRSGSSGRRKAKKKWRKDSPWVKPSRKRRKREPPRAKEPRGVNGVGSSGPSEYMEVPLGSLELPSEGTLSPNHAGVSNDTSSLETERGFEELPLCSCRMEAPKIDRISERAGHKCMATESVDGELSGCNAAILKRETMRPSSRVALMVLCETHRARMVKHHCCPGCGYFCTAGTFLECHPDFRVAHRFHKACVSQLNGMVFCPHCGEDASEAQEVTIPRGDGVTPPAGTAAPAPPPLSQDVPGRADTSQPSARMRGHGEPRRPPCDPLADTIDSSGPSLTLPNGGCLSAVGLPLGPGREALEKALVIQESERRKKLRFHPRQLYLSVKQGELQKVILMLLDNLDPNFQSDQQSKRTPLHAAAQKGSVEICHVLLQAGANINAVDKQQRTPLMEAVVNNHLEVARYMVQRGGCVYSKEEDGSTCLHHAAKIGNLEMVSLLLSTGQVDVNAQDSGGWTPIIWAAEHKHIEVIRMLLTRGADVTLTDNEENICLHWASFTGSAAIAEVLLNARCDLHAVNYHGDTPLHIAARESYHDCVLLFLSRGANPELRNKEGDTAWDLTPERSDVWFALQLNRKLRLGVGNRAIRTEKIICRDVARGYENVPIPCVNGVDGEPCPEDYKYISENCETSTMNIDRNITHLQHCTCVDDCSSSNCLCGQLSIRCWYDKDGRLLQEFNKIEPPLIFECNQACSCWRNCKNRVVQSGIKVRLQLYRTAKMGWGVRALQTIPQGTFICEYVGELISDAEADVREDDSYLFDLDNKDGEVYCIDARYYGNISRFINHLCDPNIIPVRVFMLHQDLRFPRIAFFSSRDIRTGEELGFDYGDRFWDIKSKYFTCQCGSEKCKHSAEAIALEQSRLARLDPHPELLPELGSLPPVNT
Method: (§1) Recombinant baculovirus expressing full-length FLAG-tagged CARM1,CBP and PCAF were purified by immunoaffinity chromatography using M2-agarose beads followed by elution with FLAG peptide. Baculovirus-expressed full-length hexahistidine-tagged p300, and G9a were purified using Ni-NTA affinity chromatography as described previously^30.
(§2) The deacetylation assay was performed as per standard protocol^31. For SirT2 deacetylase assay, 50 ng of bacterially expressed, recombinant enzyme was added in the presence or absence of cofactor NAD^+. HMTase was performed as reported earlier^31.

CARM1 = biological target: T2, CARM1 (Homo sapiens, UniProt Q86X55); test: Histone methyltransferase (HMTase) assay, CARM1; format: biochemical; details: even at 100 μM
T2 construct: Recombinant baculovirus expressing full-length FLAG-tagged CARM1,CBP and PCAF; FLAG; made in house; host or cells: baculovirus-infected Sf21 cells
T2 sequence (Q86X55 1-608): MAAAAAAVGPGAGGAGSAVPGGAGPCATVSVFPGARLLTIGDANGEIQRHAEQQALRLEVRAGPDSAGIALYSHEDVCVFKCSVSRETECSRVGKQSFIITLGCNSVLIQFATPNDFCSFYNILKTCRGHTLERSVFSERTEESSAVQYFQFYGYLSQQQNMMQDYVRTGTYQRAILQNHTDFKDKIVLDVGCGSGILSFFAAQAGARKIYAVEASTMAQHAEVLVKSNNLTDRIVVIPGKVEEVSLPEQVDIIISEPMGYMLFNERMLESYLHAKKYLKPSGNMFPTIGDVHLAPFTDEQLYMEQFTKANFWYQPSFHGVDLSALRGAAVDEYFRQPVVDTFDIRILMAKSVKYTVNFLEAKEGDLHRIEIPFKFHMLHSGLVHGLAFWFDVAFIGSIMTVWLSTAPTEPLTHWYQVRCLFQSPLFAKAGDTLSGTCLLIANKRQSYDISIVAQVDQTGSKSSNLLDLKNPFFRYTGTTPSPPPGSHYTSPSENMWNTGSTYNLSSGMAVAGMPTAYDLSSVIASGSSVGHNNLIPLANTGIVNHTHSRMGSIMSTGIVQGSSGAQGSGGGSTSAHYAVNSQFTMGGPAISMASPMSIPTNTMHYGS
Method: as §1, §2

KB cell tumors = test: Immunohistochemistry of KB cell tumors from treated mice; format: in vivo, nude mice (BALB/c)
Method: After deparafinizing, slides were rinsed in ethanol. Antigen retrieval was performed with sodium citrate (10 mM pH 6.0) for 5 min at 98° C. The staining was performed with the Envision kit (Dako, Denmark). Counterstaining was performed with Mayer's haematoxylin, and mounted in DPX and air dried. Each of the sample specimens was pathologically confirmed before carrying out the immunohistochemistry. For statistical analysis, cells (100 cells from a total of 5-6 independent fields) were counted from both normal and tumor tissue sections and scored for percentage of positive cells (brown colour) for the indicated antibodies. For comparison one-way ANOVA was performed using “Sigmaplot Software”. P-value<0.01 was considered as statistically significant, n=31.
Animal experiments were performed with the approval by authorized ethics Committee. Sixteen nude mice (BALB/c) were included in the experiments (10 male and 6 female mice). Mice were kept in isolators in a pathogen free environment. All nude mice were 3-4 weeks old at the start of the experiments. KB cells, 2×10^6 cells were inoculated in each mice in the right and left flanks, respectively. Mice were then divided in two groups (5 males and 3 females) in each group. After the tumors grown to palpable in size, CTK7A treatment were given intraperitoneally (i.p) with 100 mg/kg body weight/twice a day. Tumors were measured once in three days with a caliper and their volumes were calculated by the formula: 0.52×D1×(D2)^2, where ‘D1’ and ‘D2’ are, respectively, the longest and shortest dimension. The last dose of the compound (CTK7A) was administered four hour before sacrificing it. Tumors were removed and put into liquid nitrogen or were fixed in 10% formalin for 1-2 h to make blocks to be used for IHC. For comparing tumor sizes between treated and control one-way ANOVA was performed using “Sigmaplot Software”. P-value<0.05 was considered as statistically significant.

COc1cc([O-])cc(C=CC2=NN(c3ccc(C(=O)[O-])cc3)C(C=Cc3cc([O-])cc(OC)c3)C2)c1.[Na+].[Na+].[Na+] (stereo not drawn) [CTK7A, Sodium 4-(3,5-bis(3-methoxy-5-oxidostyryl)-4,5dihydro-1H-pyrazole-1-yl)benzoate]
effect on G9a activity (G9a): unaffected | effect on CARM1 activity (CARM1): unaffected | levels of COX2 in tumors (IHC) (KB cell tumors; i.p. 100 mg/kg twice a day): suppressed | levels of GAPDH in tumors (IHC) (KB cell tumors; i.p. 100 mg/kg twice a day): down regulated | levels of H3K9, K14 acetylation (H3AcK9AcK14) in tumors (IHC) (KB cell tumors; i.p. 100 mg/kg twice a day): decreased | levels of NPM1 in tumors (IHC) (KB cell tumors; i.p. 100 mg/kg twice a day): down regulated | levels of ac-p300 in tumors (IHC) (KB cell tumors; i.p. 100 mg/kg twice a day): decreased | levels of iNOS in tumors (IHC) (KB cell tumors; i.p. 100 mg/kg twice a day): down regulated | p300 expression in tumors (IHC) (KB cell tumors; i.p. 100 mg/kg twice a day): marginal affect | proliferation marker Ki-67 in tumors (IHC) (KB cell tumors; i.p. 100 mg/kg twice a day): down regulation | nuclear GAPDH in tumors (IHC) (KB cell tumors; present in control mice): absent or very faintly present | inhibition of H3K14 acetylation compared with H3K9 acetylation in tumors (IHC) (KB cell tumors; site specific antibodies): more potently
